Test results reported in patent US7960416B2, “Stable emulsion composition” (Takeda Pharmaceutical Company Limited, priority 2001, dated 2011).

system: NO production; experiment: NO production-inhibiting effect in RAW264.7 cells (nitrite ion, DAN fluorescence); type: cell-based, Mouse; conditions: Mus musculus; RAW264.7 cells stimulated with LPS 5 ng/ml and interferon gamma 1 U/ml; nitrite ion in culture supernatant; Compounds 1 and 3: minimum and maximum of 7 and 9 tests; read-out: IC50 (μM), NO production inhibition
Procedure: Mouse macrophage cell line RAW264.7 was used as an iNOS-inducible cell and a test compound was examined for its % inhibition of NO production. The test compound was dissolved at 10 mM in N,N-dimethylformamide and diluted with an RPMI-1640 medium at the concentration of 0.1 mM. The concentration was further adjusted using the medium so that a final concentration ranging from 10 μM to 10 nM could be obtained by a 10-fold serial dilution and the test compound was added to a culture medium. On the day before the experiment, the cell was adjusted at 5×10^5/ml in an RPMI-1640 medium supplemented with 10% inactivated fetal calf serum and inoculated to a 96-well microplate at 1×10^5 cells/0.2 ml per well. After incubating at 37° C. under an atmosphere of 5% CO2/95% air overnight, the test compound adjusted as described above was added and then LPS and interferon gamma were added at the final concentrations of 5 ng/ml and 1 U/ml, respectively. After further incubating overnight, culture supernatants were examined for the concentration of nitrite ion (stable metabolite of NO) which was used as an index for the NO production. The nitrite ion concentration was determined by adding 25 μl of 20 μg/ml of 2,3-diaminonaphthalene (DAN) to 50 μl of the culture supernatant, followed by incubating at room temperature for 10 minutes, followed by adding 25 μl of 0.5 N NaOH, followed by determining a fluorescence at 450 nm (excitation wavelength: 365 nm). An IC50 represents the concentration of the test compound which inhibits 50% of the NO production.

Molecule | IC50 [µM]
CCOC(=O)C1=CCCCC1S(=O)(=O)Nc1cccc(Cl)c1 (stereo not drawn) [Compound 37, ethyl 6-[N-(3-chlorophenyl)sulfamoyl]-1-cyclohexene-1-carboxylate] | 0.13
CCOC(=O)C1=CCCCC1S(=O)(=O)Nc1ccccc1CC (stereo not drawn) [Compound 39, ethyl 6-[N-(2-ethylphenyl)sulfamoyl]-1-cyclohexene-1-carboxylate] | 0.32
CCOC(=O)C1=CCCCC1S(=O)(=O)Nc1ccc(Cl)cc1 (stereo not drawn) [Compound 30, ethyl 6-[N-(4-chlorophenyl)sulfamoyl]-1-cyclohexene-1-carboxylate] | 0.54
CCOC(=O)C1=CCCCC1S(=O)(=O)Nc1ccc([N+](=O)[O-])cc1 (stereo not drawn) [Compound 5, ethyl 6-[N-(4-nitrophenyl)sulfamoyl]-1-cyclohexene-1-carboxylate] | 3.7

same assay, conditions: RAW264.7 cells stimulated with LPS 5 ng/ml and interferon gamma 1 U/ml; nitrite ion in culture supernatant; Compounds 1 and 3: minimum and maximum of 7 and 9 tests; read-out: IC50 (μM), NO production inhibition

Molecule | IC50 [µM]
ethyl 7-[N-(2-chloro-4-fluorophenyl)sulfamoyl]-1-dycloheptene-1-carboxylate [Compound 65] | 0.32
CCOC(=O)C1=CCCCC1S(=O)(=O)Nc1ccc(F)cc1F (stereo not drawn) [Compound 20, d-ethyl 6-[N-(2,4-difluorophenyl)sulfamoyl]-1-cyclohexene-1-carboxylate] | 0.005
